{
  "source": "patent EP4631968A1",
  "about": "“PEPTIDE FOR CARTILAGE REGENERATION, AND USES THEREOF” (Caregen Co., Ltd., priority 2022, dated 2024)",
  "assay_type_in_all_cases": "cell-based",
  "key": {"[1]": {"tested_on": "human adipose-derived mesenchymal stem cells (AD-MSC)", "test": "Cell morphology changes, SRB staining", "conditions": "different concentrations, after 7 days", "method": "Additionally, for SRB staining, after suctioning the medium from the plate, 60 µL of 3.7 % formalin was added to the 96-well plate to be stained and fixed for 1 minute. After suctioning 3.7 % formalin, 70 µL of SRB staining solution (sulforhodamine B sodium salt (sigma, S9012): 0.2 g in 100 mL DDW) was added and stained. The plate was covered with aluminum foil, blocked from light, and incubated overnight at room temperature. After washing with 100 µL of 1 % acetic acid using a multi-pipette, it was dried and observed under a microscope."}, "[2]": {"tested_on": "human-derived chondrocytes (C28/I2, human chondrocyte cell line)", "test": "Cytotoxicity, CCK-8 assay", "conditions": "C28/I2 cells, different concentrations, after 3 days, 450 nm", "method": "The cytotoxicity of Peptide-1 or Peptide-2 upon addition to human-derived chondrocytes (C28/I2, human chondrocyte cell line) was analyzed using a CCK-8 assay.\nSpecifically, human-derived chondrocytes were seeded in a 96-well plate at a density of 3 × 10^3 cells/well and cultured in DMEM medium (cat. 11995-065, Gibco) for 24 hours. […] Meanwhile, as a negative control group, an experimental group to which the peptide was not added was used."}, "[3]": {"tested_on": "human adipose-derived mesenchymal stem cells (AD-MSC)", "test": "Cytotoxicity, CCK-8 assay", "conditions": "different concentrations, after 7 days, 450 nm"}},
  "note": "Where no end group is shown, it is not given here.",
  "data": [
    {"substance": "SSFYF [Peptide-2, SSFYF]", "values": [
      {"measurement": "change in cell morphology in SRB staining", "setting": "[1]", "result": "did not show any change in cell morphology"},
      {"measurement": "toxicity (CCK-8 activity)", "setting": "[2]", "result": "did not exhibit toxicity"},
      {"measurement": "toxicity (CCK-8 activity)", "setting": "[3]", "result": "did not exhibit toxicity"}
    ]},
    {"substance": "KVSYAAEKNRKNY [Peptide-1, KVSYAAEKNRKNY]", "values": [
      {"measurement": "change in cell morphology in SRB staining", "setting": "[1]", "result": "did not show any change in cell morphology"},
      {"measurement": "toxicity (CCK-8 activity)", "setting": "[2]", "result": "did not exhibit toxicity"},
      {"measurement": "toxicity (CCK-8 activity)", "setting": "[3]", "result": "did not exhibit toxicity"}
    ]}
  ]
}
